From US7402548B2, “Benzoxazole compounds, process for producing the same and herbicides” (Kyoyu Agri Co., Ltd., priority 2000, dated 2008)

What was measured:
corn [1] = experiment: Soil treatment test for upland field; type: in vivo; design: key: 0 = normal development, 5 = all killed; details: 500 g/ha, 3 weeks, glass house 25° C.
Protocol: (§1) The herbicidal effects are evaluated according to the following 6 ranks as compared with non-treated district. (0: normal development, 1: Less damaged, 2: Slightly damaged, 3: Moderately damaged, 4: Severely damaged, 5: All killed). Incidentally, “-” in the column means not investigated.
(§2) Wagner pots, each having an area of 1/5000 are, were packed with Ube soil (alluvial soil), and then each seed of corn, soybean, cotton, wheat, solgum, sugar beat, Large crabgrass, barnyard grass, green foxtail, blackgrass, annual bluegrass, common lambsquarters, livid amaranth, velvetleaf, morning glory, common Cocklebur (Xanthium strumarium) and sicklepod (Cassia obtusifolia) were planted and covered with soil.
(§3) Each wettable powder of the desired compounds (I) shown in Tables 1 to 21, 24, 25, 28 and 29 prepared in accordance with Example 2 was diluted with water containing a surfactant (0.05%) and uniformly sprayed on the surface of each soil so that an effective concentration of the compound (I) in each herbicide became 500 g/ha.
(§4) These plants were controlled in a glass house at an average temperature of 25° C. for 3 weeks, and then herbicidal effects thereof were investigated.
(§5) The herbicidal effects were evaluated according to the evaluation method described in the above (1).

solgum [2] = experiment: Soil treatment test for upland field; type: in vivo; design: key: 0 = normal development, 5 = all killed; details: 500 g/ha, 3 weeks, glass house 25° C.
Protocol: as §1, §2, §3, §4, §5

sugar beat [3] = experiment: Soil treatment test for upland field; type: in vivo; design: key: 0 = normal development, 5 = all killed; details: 500 g/ha, 3 weeks, glass house 25° C.
Protocol: as §1, §2, §3, §4, §5

wheat [4] = experiment: Soil treatment test for upland field; type: in vivo; design: key: 0 = normal development, 5 = all killed; details: 500 g/ha, 3 weeks, glass house 25° C.
Protocol: as §1, §2, §3, §4, §5

Large crabgrass [5] = experiment: Soil treatment test for upland field; type: in vivo, Digitaria adscendens; design: key: 0 = normal development, 5 = all killed; details: 500 g/ha, 3 weeks, glass house 25° C.
Protocol: as §1, §2, §3, §4, §5

barnyard grass = experiment: Soil treatment test for upland field; type: in vivo, Eschinochloa crusgalli; design: key: 0 = normal development, 5 = all killed; details: 500 g/ha, 3 weeks, glass house 25° C.
Protocol: as §1, §2, §3, §4, §5

green foxtail [6] = experiment: Soil treatment test for upland field; type: in vivo, Setaria viridis; design: key: 0 = normal development, 5 = all killed; details: 500 g/ha, 3 weeks, glass house 25° C.
Protocol: as §1, §2, §3, §4, §5

blackgrass [7] = experiment: Soil treatment test for upland field; type: in vivo, Alopecurus aegualis; design: key: 0 = normal development, 5 = all killed; details: 500 g/ha, 3 weeks, glass house 25° C.
Protocol: as §1, §2, §3, §4, §5

annual bluegrass [8] = experiment: Soil treatment test for upland field; type: in vivo, Poa annua; design: key: 0 = normal development, 5 = all killed; details: 500 g/ha, 3 weeks, glass house 25° C.
Protocol: as §1, §2, §3, §4, §5

common lambsquarters [9] = experiment: Soil treatment test for upland field; type: in vivo, Chenopodium album; design: key: 0 = normal development, 5 = all killed; details: 500 g/ha, 3 weeks, glass house 25° C.
Protocol: as §1, §2, §3, §4, §5

livid amaranth [10] = experiment: Soil treatment test for upland field; type: in vivo, Amaranthus lividus; design: key: 0 = normal development, 5 = all killed; details: 500 g/ha, 3 weeks, glass house 25° C.
Protocol: as §1, §2, §3, §4, §5

velvetleaf [11] = experiment: Soil treatment test for upland field; type: in vivo, Abutilon theophrasti; design: key: 0 = normal development, 5 = all killed; details: 500 g/ha, 3 weeks, glass house 25° C.
Protocol: as §1, §2, §3, §4, §5

morning glory [12] = experiment: Soil treatment test for upland field; type: in vivo, Ipomoea spps.; design: key: 0 = normal development, 5 = all killed; details: 500 g/ha, 3 weeks, glass house 25° C.
Protocol: as §1, §2, §3, §4, §5

corn [13] = experiment: Foliar spread test for upland field; type: in vivo; design: key: 0 = normal development, 5 = all killed (6 ranks vs. untreated); details: foliar spray, 500 ppm, 3 weeks, glass house 25° C.
Protocol: as §1
(§6) Wagner pots, each having an area of 1/5000 are, were packed with volcanic ash soil and then each seed of corn, soybean, cotton, wheat, solgum, sugar beat, Large crabgrass, barnyardgrjass, green foxtail, blackgrass, annual bluegrass, common lambsquarters, livid amaranth, velvetleaf, morning glory, Xanthium pensylvanicum and Cassia obtusifolia was planted, covered with soil and grown in a glass house at an average temperature of 25° C. for about 2 weeks.
(§7) Each wettable powder of the desired compounds (I) shown in Tables 1 to 21, 24, 25, 28 and 29 prepared in accordance with Example 2 was diluted to 500 ppm with water containing a surfactant (0.5%) and then uniformly sprayed on the above respective plants.
(§8) After these plants were controlled in a glass house at an average temperature of 25° C. for 3 weeks, the herbicidal effects thereof were investigated.
as §5

cotton = experiment: Foliar spread test for upland field; type: in vivo; design: key: 0 = normal development, 5 = all killed (6 ranks vs. untreated); details: foliar spray, 500 ppm, 3 weeks, glass house 25° C.
Protocol: as §1, §6, §7, §8, §5

solgum [14] = experiment: Foliar spread test for upland field; type: in vivo; design: key: 0 = normal development, 5 = all killed (6 ranks vs. untreated); details: foliar spray, 500 ppm, 3 weeks, glass house 25° C.
Protocol: as §1, §6, §7, §8, §5

soybean = experiment: Foliar spread test for upland field; type: in vivo; design: key: 0 = normal development, 5 = all killed (6 ranks vs. untreated); details: foliar spray, 500 ppm, 3 weeks, glass house 25° C.
Protocol: as §1, §6, §7, §8, §5

sugar beat [15] = experiment: Foliar spread test for upland field; type: in vivo; design: key: 0 = normal development, 5 = all killed (6 ranks vs. untreated); details: foliar spray, 500 ppm, 3 weeks, glass house 25° C.
Protocol: as §1, §6, §7, §8, §5

wheat [16] = experiment: Foliar spread test for upland field; type: in vivo; design: key: 0 = normal development, 5 = all killed (6 ranks vs. untreated); details: foliar spray, 500 ppm, 3 weeks, glass house 25° C.
Protocol: as §1, §6, §7, §8, §5

Large crabgrass [17] = experiment: Foliar spread test for upland field; type: in vivo, Digitaria adscendens; design: key: 0 = normal development, 5 = all killed (6 ranks vs. untreated); details: foliar spray, 500 ppm, 3 weeks, glass house 25° C.
Protocol: as §1, §6, §7, §8, §5

barnyardgrjass = experiment: Foliar spread test for upland field; type: in vivo, Eschinochloa crusgalli; design: key: 0 = normal development, 5 = all killed (6 ranks vs. untreated); details: foliar spray, 500 ppm, 3 weeks, glass house 25° C.
Protocol: as §1, §6, §7, §8, §5

green foxtail [18] = experiment: Foliar spread test for upland field; type: in vivo, Setaria viridis; design: key: 0 = normal development, 5 = all killed (6 ranks vs. untreated); details: foliar spray, 500 ppm, 3 weeks, glass house 25° C.
Protocol: as §1, §6, §7, §8, §5

blackgrass [19] = experiment: Foliar spread test for upland field; type: in vivo, Alopecurus aegualis; design: key: 0 = normal development, 5 = all killed (6 ranks vs. untreated); details: foliar spray, 500 ppm, 3 weeks, glass house 25° C.
Protocol: as §1, §6, §7, §8, §5

annual bluegrass [20] = experiment: Foliar spread test for upland field; type: in vivo, Poa annua; design: key: 0 = normal development, 5 = all killed (6 ranks vs. untreated); details: foliar spray, 500 ppm, 3 weeks, glass house 25° C.
Protocol: as §1, §6, §7, §8, §5

common lambsquarters [21] = experiment: Foliar spread test for upland field; type: in vivo, Chenopodium album; design: key: 0 = normal development, 5 = all killed (6 ranks vs. untreated); details: foliar spray, 500 ppm, 3 weeks, glass house 25° C.
Protocol: as §1, §6, §7, §8, §5

livid amaranth [22] = experiment: Foliar spread test for upland field; type: in vivo, Amaranthus lividus; design: key: 0 = normal development, 5 = all killed (6 ranks vs. untreated); details: foliar spray, 500 ppm, 3 weeks, glass house 25° C.
Protocol: as §1, §6, §7, §8, §5

velvetleaf [23] = experiment: Foliar spread test for upland field; type: in vivo, Abutilon theophrasti; design: key: 0 = normal development, 5 = all killed (6 ranks vs. untreated); details: foliar spray, 500 ppm, 3 weeks, glass house 25° C.
Protocol: as §1, §6, §7, §8, §5

morning glory [24] = experiment: Foliar spread test for upland field; type: in vivo, Ipomoea spps.; design: key: 0 = normal development, 5 = all killed (6 ranks vs. untreated); details: foliar spray, 500 ppm, 3 weeks, glass house 25° C.
Protocol: as §1, §6, §7, §8, §5

| SMILES | Effects Corn (corn [1]) | Effects Solgum (solgum [2]) | Effects Wheat (wheat [4]) | Effects Large crabgrass (Large crabgrass [5]) | Effects Barnyardgrass (barnyard grass) | Effects Green foxtail (green foxtail [6]) | Effects Blackgrass (blackgrass [7]) | Effects Annual bluegrass (annual bluegrass [8]) | Effects Common lambsquarters (common lambsquarters [9]) | Effects Livid amaranth (livid amaranth [10]) | Effects Morning glory (morning glory [12]) | Effects Corn (corn [13]) | Effects Sotton (cotton) | Effects Solgum (solgum [14]) | Effects Soybean (soybean) | Effects Sugar beat (sugar beat [15]) | Effects Wheat (wheat [16]) | Effects Large crabgrass (Large crabgrass [17]) | Effects Barnyardgrass (barnyardgrjass) | Effects Green foxtail (green foxtail [18]) | also measured |
| --- | --- | --- | --- | --- | --- | --- | --- | --- | --- | --- | --- | --- | --- | --- | --- | --- | --- | --- | --- | --- | --- |
| CCC(=Cc1cccc(C(F)(F)F)c1)c1nc2ccc([N+](=O)[O-])cc2o1 [I-c-15] | 1 | 1 | 1 | 5 | 4 | 5 | 5 | 5 | 5 | 5 | 2 | 2 | 3 | 2 | 5 | 4 | 2 | 4 | 3 | 4 | Effects Sugar beat (sugar beat [3]): 2; Effects Velvetleaf (velvetleaf [11]): 2; Effects Blackgrass (blackgrass [19]): 3; Effects Annual bluegrass (annual bluegrass [20]): 4; Effects Common lambsquarters (common lambsquarters [21]): 5; Effects Livid amaranth (livid amaranth [22]): 5; Effects Velvetleaf (velvetleaf [23]): 3; Effects Morning glory (morning glory [24]): 5 |
| CC(=Cc1cccc(C(F)(F)F)c1)c1nc2cc(F)ccc2o1 [I-c-40] | 0 | 2 | 0 | 5 | 5 | 5 | 4 | 5 | 5 | 5 | 3 | 2 | 1 | 1 | 4 | 4 | 1 | 3 | 1 | 2 | Effects Sugar beat (sugar beat [3]): 1; Effects Blackgrass (blackgrass [19]): 2; Effects Annual bluegrass (annual bluegrass [20]): 2; Effects Common lambsquarters (common lambsquarters [21]): 4; Effects Livid amaranth (livid amaranth [22]): 4; Effects Velvetleaf (velvetleaf [23]): 1; Effects Morning glory (morning glory [24]): 3 |
| CCCC(=Cc1cccc(C(F)(F)F)c1)c1nc2cc(F)ccc2o1 [I-c-44] | 2 | 3 | 2 | 5 | 5 | 5 | 5 | 5 | 5 | 5 | 2 | 2 | 3 | 2 | 5 | 3 | 2 | 4 | 2 | 4 | Effects Sugar beat (sugar beat [3]): 5; Effects Velvetleaf (velvetleaf [11]): 3; Effects Blackgrass (blackgrass [19]): 3; Effects Annual bluegrass (annual bluegrass [20]): 4; Effects Common lambsquarters (common lambsquarters [21]): 5; Effects Livid amaranth (livid amaranth [22]): 5; Effects Velvetleaf (velvetleaf [23]): 2; Effects Morning glory (morning glory [24]): 5 |
| CCCC(=Cc1cccc(C(F)(F)F)c1)c1nc2cc(Cl)ccc2o1 [I-c-57] | 2 | 2 | 2 | 5 | 5 | 5 | 5 | 5 | 5 | 5 | 3 | 2 | 4 | 2 | 5 | 3 | 2 | 4 | 3 | 5 | Effects Velvetleaf (velvetleaf [11]): 5; Effects Blackgrass (blackgrass [19]): 3; Effects Annual bluegrass (annual bluegrass [20]): 4; Effects Common lambsquarters (common lambsquarters [21]): 5; Effects Livid amaranth (livid amaranth [22]): 4; Effects Velvetleaf (velvetleaf [23]): 3; Effects Morning glory (morning glory [24]): 5 |
